Data taken from patent US20230085307A1, “PYRIDAZINONE COMPOUND AND HERBICIDE” (NISSAN CHEMICAL CORPORATION, priority 2019, published 2023).

Legend:
rice flat sedge = experiment: Test Example 3: herbicidal effect by foliage application, Wagner pot (Table 18, symbol E); assay type: in vivo, rice flat sedge (Cyperus iria); conditions: amount of applied herbicide 320 g/ha
Procedure, shortened: (§1)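 Plants were sown in alluvial soil held under 0.1–0.5 cm standing water and grown 14 days in a greenhouse at 25–30 °C. An emulsifiable formulation, water-diluted to the set dose, was then sprayed onto the foliage, and effects were scored three weeks later using previously defined criteria.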

Chinese sprangletop = experiment: Test Example 3: herbicidal effect by foliage application, Wagner pot (Table 18, symbol D); assay type: in vivo, chinese sprangletop (Leptochloa chinensis); conditions: amount of applied herbicide 320 g/ha
Procedure, shortened: as §1

green foxtail [1] = experiment: Test Example 4: herbicidal effect by soil treatment (Table 19, symbol G); assay type: in vivo, green foxtail (Setaria viridis); conditions: amount of applied herbicide 320 g/ha
Procedure, shortened: (§2)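 Seeds were sown in sterilized diluvial soil and covered with about 1.5 cm of soil. An emulsion formulation diluted with water to a predetermined herbicide amount was sprayed evenly onto the soil surface. Plants grew in a greenhouse at 25° C. to 30° C., and the effect was scored three weeks after application using criteria from an earlier test.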

lambsquarters [2] = experiment: Test Example 5: herbicidal effect by foliage application, plastic box (Table 20, symbol O); assay type: in vivo, lambsquarters (Chenopodium album); conditions: foliage application, 320 g/ha, evaluated three weeks after application
Procedure, shortened: (§3)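 Plants sown in sterilized diluvial soil and grown 14 days in a greenhouse at 25° C to 30° C, then sprayed on the foliage with the compound's emulsion diluted in water to a predetermined herbicide amount. Injury to weeds and crops scored three weeks after application on a visual rating scale.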

wild oat [3] = experiment: Test Example 4: herbicidal effect by soil treatment (Table 19, symbol I); assay type: in vivo, wild oat (Avena fatua); conditions: amount of applied herbicide 320 g/ha
Procedure, shortened: as §2

southern crabgrass [4] = experiment: Test Example 5: herbicidal effect by foliage application, plastic box (Table 20, symbol F); assay type: in vivo, southern crabgrass (Digitaria ciliaris); conditions: foliage application, 320 g/ha, evaluated three weeks after application
Procedure, shortened: as §3

persian speedwell [5] = experiment: Test Example 4: herbicidal effect by soil treatment (Table 19, symbol R); assay type: in vivo, Persian speedwell (Veronica persica); conditions: amount of applied herbicide 320 g/ha
Procedure, shortened: as §2

redroot pigweed [6] = experiment: Test Example 4: herbicidal effect by soil treatment (Table 19, symbol N); assay type: in vivo, redroot pigweed (Amaranthus retroflexus); conditions: amount of applied herbicide 320 g/ha
Procedure, shortened: as §2

chickweed [7] = experiment: Test Example 5: herbicidal effect by foliage application, plastic box (Table 20, symbol P); assay type: in vivo, common chickweed (Stellaria media); conditions: foliage application, 320 g/ha, evaluated three weeks after application
Procedure, shortened: as §3

southern crabgrass [8] = experiment: Test Example 4: herbicidal effect by soil treatment (Table 19, symbol F); assay type: in vivo, southern crabgrass (Digitaria ciliaris); conditions: amount of applied herbicide 320 g/ha
Procedure, shortened: as §2

barnyard grass [9] = experiment: Test Example 4: herbicidal effect by soil treatment (Table 19, symbol H); assay type: in vivo, barnyard grass (Echinochloa crus-galli); conditions: amount of applied herbicide 320 g/ha
Procedure, shortened: as §2

windgrass [10] = experiment: Test Example 4: herbicidal effect by soil treatment (Table 19, symbol L); assay type: in vivo, windgrass (Apera spica-venti); conditions: amount of applied herbicide 320 g/ha
Procedure, shortened: as §2

barnyard grass [11] = experiment: Test Example 5: herbicidal effect by foliage application, plastic box (Table 20, symbol H); assay type: in vivo, barnyard grass (Echinochloa crus-galli); conditions: foliage application, 320 g/ha, evaluated three weeks after application
Procedure, shortened: as §3

late watergrass = experiment: Test Example 1: herbicidal activity, application before weed generation under submerged conditions (Table 16, symbol A); assay type: in vivo, late watergrass (Echinochloa oryzicola); conditions: 320 g/ha applied herbicide
Procedure, shortened: (§4)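 Alluvial soil was flooded to 4 cm depth, weed seeds were sown mixed and 2.5-leaf rice seedlings were transplanted. On sowing day, the compound's emulsion, diluted in water to a set dose, was applied to the water surface. Plants grew at 25–30 °C and were scored 0–5 after three weeks.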

blackgrass [12] = experiment: Test Example 4: herbicidal effect by soil treatment (Table 19, symbol J); assay type: in vivo, blackgrass (Alopecurus myosuroides); conditions: amount of applied herbicide 320 g/ha
Procedure, shortened: as §2

oval-leafed pondweed = experiment: Test Example 1: herbicidal activity, application before weed generation under submerged conditions (Table 16, symbol C); assay type: in vivo, oval-leafed pondweed (Monochoria vaginalis); conditions: 320 g/ha applied herbicide
Procedure, shortened: as §4

Japanese bulrush = experiment: Test Example 1: herbicidal activity, application before weed generation under submerged conditions (Table 16, symbol B); assay type: in vivo, Japanese bulrush (Schoenoplectus juncoides); conditions: 320 g/ha applied herbicide
Procedure, shortened: as §4

velvetleaf [13] = experiment: Test Example 4: herbicidal effect by soil treatment (Table 19, symbol M); assay type: in vivo, velvetleaf (Abutilon theophrasti); conditions: amount of applied herbicide 320 g/ha
Procedure, shortened: as §2

green foxtail [14] = experiment: Test Example 5: herbicidal effect by foliage application, plastic box (Table 20, symbol G); assay type: in vivo, green foxtail (Setaria viridis); conditions: foliage application, 320 g/ha, evaluated three weeks after application
Procedure, shortened: as §3

Italian ryegrass [15] = experiment: Test Example 4: herbicidal effect by soil treatment (Table 19, symbol K); assay type: in vivo, Italian ryegrass (Lolium multiflorum); conditions: amount of applied herbicide 320 g/ha
Procedure, shortened: as §2

blackgrass [16] = experiment: Test Example 5: herbicidal effect by foliage application, plastic box (Table 20, symbol J); assay type: in vivo, blackgrass (Alopecurus myosuroides); conditions: foliage application, 320 g/ha, evaluated three weeks after application
Procedure, shortened: as §3

velvetleaf [17] = experiment: Test Example 5: herbicidal effect by foliage application, plastic box (Table 20, symbol M); assay type: in vivo, velvetleaf (Abutilon theophrasti); conditions: foliage application, 320 g/ha, evaluated three weeks after application
Procedure, shortened: as §3

windgrass [18] = experiment: Test Example 5: herbicidal effect by foliage application, plastic box (Table 20, symbol L); assay type: in vivo, windgrass (Apera spica-venti); conditions: foliage application, 320 g/ha, evaluated three weeks after application
Procedure, shortened: as §3

Italian ryegrass [19] = experiment: Test Example 5: herbicidal effect by foliage application, plastic box (Table 20, symbol K); assay type: in vivo, Italian ryegrass (Lolium multiflorum); conditions: foliage application, 320 g/ha, evaluated three weeks after application
Procedure, shortened: as §3

wild oat [20] = experiment: Test Example 5: herbicidal effect by foliage application, plastic box (Table 20, symbol I); assay type: in vivo, wild oat (Avena fatua); conditions: foliage application, 320 g/ha, evaluated three weeks after application
Procedure, shortened: as §3

barnyard grass [21] = experiment: Test Example 3: herbicidal effect by foliage application, Wagner pot (Table 18, symbol H); assay type: in vivo, barnyard grass (Echinochloa crus-galli); conditions: amount of applied herbicide 320 g/ha
Procedure, shortened: as §1

persian speedwell [22] = experiment: Test Example 5: herbicidal effect by foliage application, plastic box (Table 20, symbol R); assay type: in vivo, Persian speedwell (Veronica persica); conditions: foliage application, 320 g/ha, evaluated three weeks after application
Procedure, shortened: as §3

false cleavers = experiment: Test Example 4: herbicidal effect by soil treatment (Table 19, symbol Q); assay type: in vivo, false cleavers (Galium spurium); conditions: amount of applied herbicide 320 g/ha
Procedure, shortened: as §2

lambsquarters [23] = experiment: Test Example 4: herbicidal effect by soil treatment (Table 19, symbol O); assay type: in vivo, lambsquarters (Chenopodium album); conditions: amount of applied herbicide 320 g/ha
Procedure, shortened: as §2

redroot pigweed [24] = experiment: Test Example 5: herbicidal effect by foliage application, plastic box (Table 20, symbol N); assay type: in vivo, redroot pigweed (Amaranthus retroflexus); conditions: foliage application, 320 g/ha, evaluated three weeks after application
Procedure, shortened: as §3

chickweed [25] = experiment: Test Example 4: herbicidal effect by soil treatment (Table 19, symbol P); assay type: in vivo, common chickweed (Stellaria media); conditions: amount of applied herbicide 320 g/ha
Procedure, shortened: as §2

SMILES: CCCCOc1cccc(-c2sc3ccc(F)cc3c2-c2c(O)c(C)nn(C)c2=O)c1 [2-219]
- herbicidal effect on E: rice flat sedge (rice flat sedge): 3 (Herbicidal rate of 40% or more and less than 70%)
- herbicidal effect on D: Chinese sprangletop (Chinese sprangletop): 3 (Herbicidal rate of 40% or more and less than 70%)
- G: green foxtail, herbicidal effect rating (green foxtail [1]): 4 (Herbicidal rate of 70% or more and less than 90%)
- herbicidal effect on O: lambsquarters (criteria 0-5) (lambsquarters [2]): 3 (Herbicidal rate of 40% or more and less than 70%)
- I: wild oat, herbicidal effect rating (wild oat [3]): 0 (Herbicidal rate of 5% or less (almost no effect))
- herbicidal effect on F: southern crabgrass (criteria 0-5) (southern crabgrass [4]): 4 (Herbicidal rate of 70% or more and less than 90%)
- R: persian speedwell, herbicidal effect rating (persian speedwell [5]): 3 (Herbicidal rate of 40% or more and less than 70%)
- N: redroot pigweed, herbicidal effect rating (redroot pigweed [6]): 3 (Herbicidal rate of 40% or more and less than 70%)
- herbicidal effect on P: chickweed (criteria 0-5) (chickweed [7]): 5 (Herbicidal rate of 90% or more (almost completely withered))
- F: southern crabgrass, herbicidal effect rating (southern crabgrass [8]): 4 (Herbicidal rate of 70% or more and less than 90%)
- H: barnyard grass, herbicidal effect rating (barnyard grass [9]): 5 (Herbicidal rate of 90% or more (almost completely withered))
- L: windgrass, herbicidal effect rating (windgrass [10]): 0 (Herbicidal rate of 5% or less (almost no effect))
- herbicidal effect on H: barnyard grass (criteria 0-5) (barnyard grass [11]): 4 (Herbicidal rate of 70% or more and less than 90%)
- Herbicidal effect on A: late watergrass (grade 0-5) (late watergrass): 3 (Herbicidal rate of 40% or more and less than 70%)
- J: blackgrass, herbicidal effect rating (blackgrass [12]): 0 (Herbicidal rate of 5% or less (almost no effect))
- Herbicidal effect on C: oval-leafed pondweed (grade 0-5) (oval-leafed pondweed): 0 (Herbicidal rate of 5% or less (almost no effect))
- Herbicidal effect on B: Japanese bulrush (grade 0-5) (Japanese bulrush): 0 (Herbicidal rate of 5% or less (almost no effect))
- M: velvetleaf, herbicidal effect rating (velvetleaf [13]): 1 (Herbicidal rate of 5% or more and less than 20%)
- herbicidal effect on G: green foxtail (criteria 0-5) (green foxtail [14]): 5 (Herbicidal rate of 90% or more (almost completely withered))
- K: Italian ryegrass, herbicidal effect rating (Italian ryegrass [15]): 0 (Herbicidal rate of 5% or less (almost no effect))
- herbicidal effect on J: blackgrass (criteria 0-5) (blackgrass [16]): 0 (Herbicidal rate of 5% or less (almost no effect))
- herbicidal effect on M: velvetleaf (criteria 0-5) (velvetleaf [17]): 2 (Herbicidal rate of 20% or more and less than 40%)
- herbicidal effect on L: windgrass (criteria 0-5) (windgrass [18]): 0 (Herbicidal rate of 5% or less (almost no effect))
- herbicidal effect on K: Italian ryegrass (criteria 0-5) (Italian ryegrass [19]): 0 (Herbicidal rate of 5% or less (almost no effect))
- herbicidal effect on I: wild oat (criteria 0-5) (wild oat [20]): 0 (Herbicidal rate of 5% or less (almost no effect))
- herbicidal effect on H: barnyard grass (barnyard grass [21]): 5 (Herbicidal rate of 90% or more (almost completely withered))
- herbicidal effect on R: persian speedwell (criteria 0-5) (persian speedwell [22]): 5 (Herbicidal rate of 90% or more (almost completely withered))
- Q: false cleavers, herbicidal effect rating (false cleavers): 0 (Herbicidal rate of 5% or less (almost no effect))
- O: lambsquarters, herbicidal effect rating (lambsquarters [23]): 1 (Herbicidal rate of 5% or more and less than 20%)
- herbicidal effect on N: redroot pigweed (criteria 0-5) (redroot pigweed [24]): 5 (Herbicidal rate of 90% or more (almost completely withered))
- P: chickweed, herbicidal effect rating (chickweed [25]): 0 (Herbicidal rate of 5% or less (almost no effect))
